In patent US20240102016A1, “APPLICATION OF VEGFR GENE EXPRESSION INHIBITOR IN PREPARING PREPARATION OR AS PREPARATION FOR TREATING PSORIASIS” (priority 2022, published 2024):

Tests used:
Type in all cases: in vivo
[1] = tested on: IMQ-induced psoriatic mice; assay: H&E staining of skin sections and PASI scores in IMQ-induced psoriatic mice; conditions: skin smeared with SU5205, 10 kg/kg/d, 150 μL, 4 h before IMQ cream; compared with the IMQ-induced mice
Source text: (§1) In the embodiment of the disclosure, psoriatic mice coated with VEGFR inhibitors are constructed as follows: dissolving the VEGFR inhibitor SU5205 in dimethyl sulfoxide (DMSO) solution to prepare stock solution, diluting the stock solution with cyclodextrin, and coating the stock solution with a concentration of […] (referred to a daily dosage per kilogram of body weight of the psoriatic mice) on the psoriatic mice. 7-8-week wild-type mice are taken with back hair shaved and an exposed skin area of 2 cm×2 cm. 150 μL of the VEGFR inhibitor solution is coated on the skin surface. The normal control mice are coated with control reagent (with 150 μL of DMSO and cyclodextrin). The psoriatic mice and the normal control mice are respectively coated with Imiquimod (IMQ) cream or control reagent VAS on the exposed skin in 4 h later of the above operation.
(§2) In the embodiment of the disclosure, the psoriatic mice subcutaneously injected with VEGF are constructed as follows: dissolving VEGF165 protein in DMSO solution to prepare stock solution, diluting the stock solution with cyclodextrin, and smearing the mice with the stock solution with a concentration of […]. 7-8-week wild-type mice are taken with back hair shaved and an exposed skin area of 2 cm×2 cm. 100 μL of the VEGF165 solution is injected subcutaneously the skin surface of the mice. […]

[2] = tested on: RASGRP1 downstream pathway; assay: Western blot of RASGRP1 downstream pathway proteins in skin tissues of psoriatic mice; conditions: skin smeared with SU5205; compared with the IMQ-induced mice
Source text: as §1
In the embodiment of the disclosure, the psoriatic mice subcutaneously injected with VEGF are constructed as follows: dissolving VEGF165 protein in DMSO solution to prepare stock solution, diluting the stock solution with cyclodextrin, and smearing the mice with the stock solution with a concentration of […]. 7-8-week wild-type mice are taken with back hair shaved and an exposed skin area of 2 cm×2 cm. 100 μL of the VEGF165 solution is injected subcutaneously the skin surface of the mice. The normal control mice are injected with control reagent subcutaneously (with 100 μL of DMSO and cyclodextrin). The psoriatic mice subcutaneously injected with VEGF165, and the normal control mice are respectively smeared IMQ cream or control reagent VAS on the exposed skin in 4 h later of the injections.

[3] = tested on: RASGRP1+T cells and IL-17A+T cells; assay: Flow cytometry of RASGRP1+T cells and IL-17A+T cells in skin tissues of psoriatic mice; conditions: skin smeared with SU5205
Source text: as §1, §2

O=C1Nc2ccccc2/C1=C/c1ccc(F)cc1 [SU5205]
psoriasis phenotypes (dorsal skin thickness, erythema, scaling; H&E staining and PASI scores) [1]: significantly reduced | active protein level of IL-1β in skin tissues [2]: significantly lower | active protein level of NF-κB in skin tissues [2]: significantly reduced | active protein level of phosphorylated AKT in skin tissues [2]: significantly reduced | IL-17A+T cells in skin tissues [3]: decrease significantly | Rasgrp1+T cells in skin tissues [3]: decrease significantly
